Reference: patent publication US20250082648A1, “COMPOSITIONS AND METHODS FOR ENHANCING KRAS INHIBITOR OR SHP2 INHIBITOR EFFICACY” (New York University, priority 2023, published 2025)

System: H2122 cells
Assay: CRISPR/Cas9 synthetic lethal screen with TNO155 alone
Assay type: cell-based, human
Details: for neg|score / pos|lfc: H2122; for neg|lfc: H2122 cells

For `C[C@@H]1OCC2(CCN(c3cnc(Sc4ccnc(N)c4Cl)c(N)n3)CC2)[C@@H]1N` [TNO155], the “neg|score” value (PSMB4 knockout) was 0.000768, the “neg|lfc” value (QARS knockout) was −1.1752 and the “neg|score” value (RABGGTA knockout) was 0.0007119. For the same molecule, the “neg|lfc” value (RABIF knockout) was −1.3292, the “neg|lfc” value (RANBP1 knockout) was −0.7938 and the “neg|lfc” value (RBM10 knockout) was −1.4299. The “neg|lfc” value (RBM48 knockout) was −1.4768, the “neg|score” value (RBX1 knockout) was 0.0008383 and the “neg|score” value (RFC2 knockout) was 0.0008264. The “neg|score” value (RNASEH1 knockout) was 0.000903, the “neg|lfc” value (RNF20 knockout) was −0.9142 and the “neg|score” value (RNF168 knockout) was 0.0008246. For the same molecule, the “neg|score” value (RNPS1 knockout) was 0.0009345, the “neg|score” value (RPF2 knockout) was 0.0009481 and the “neg|lfc” value (RPL7 knockout) was −1.3947. The “neg|lfc” value (RPL18A knockout) was −1.5316, the “neg|lfc” value (RPL35 knockout) was −0.8092 and the “neg|lfc” value (RPP30 knockout) was −1.2535. The “neg|score” value (RPS2 knockout) was 0.0008275, the “neg|lfc” value (RPS8 knockout) was −2.8705 and the “neg|lfc” value (RRM1 knockout) was −1.5038. The “neg|score” value (SASS6 knockout) was 0.0008932, the “neg|lfc” value (SKA2 knockout) was −1.5851 and the “neg|lfc” value (SLC39A14 knockout) was −0.9135. The “neg|score” value (SMARCB1 knockout) was 0.0008764, the “neg|score” value (SOD1 knockout) was 0.0007147 and the “neg|lfc” value (SRPRB knockout) was −0.9129. For the same molecule, the “neg|score” value (SUPT4H1 knockout) was 0.0007007, the “neg|lfc” value (SUZ12 knockout) was −0.9357 and the “neg|lfc” value (TARDBP knockout) was −1.4541. For the same molecule, the “neg|lfc” value (TBCA knockout) was −1.4702, the “neg|lfc” value (TBP knockout) was −1.6473 and the “neg|lfc” value (TFB1M knockout) was −0.9751. For the same molecule, the “neg|score” value (TFDP1 knockout) was 0.0007958, the “neg|score” value (TIMM13 knockout) was 0.0007917 and the “neg|score” value (TMEM130 knockout) was 0.0009518. For the same molecule, the “neg|score” value (TNPO3 knockout) was 0.0009376, the “neg|score” value (TRIT1 knockout) was 0.0007446 and the “neg|lfc” value (TSR1 knockout) was −1.335. The “neg|score” value (TTC27 knockout) was 0.0008097, the “neg|score” value (TTI1 knockout) was 0.0008319 and the “neg|score” value (TUBE1 knockout) was 0.0008874. For the same molecule, the “neg|score” value (TUT1 knockout) was 0.0008619, the “neg|lfc” value (TXNL4A knockout) was −1.8929 and the “neg|score” value (TYMS knockout) was 0.0007567. For the same molecule, the “neg|lfc” value (UBC knockout) was −1.0724, the “neg|score” value (UBE2I knockout) was 0.0008281 and the “neg|lfc” value (UBR4 knockout) was −1.0947. For the same molecule, the “neg|lfc” value (UBR5 knockout) was −1.3884, the “neg|score” value (UBTF knockout) was 0.0007853 and the “neg|lfc” value (UQCRC2 knockout) was −1.0409. For the same molecule, the “neg|lfc” value (UTP6 knockout) was −2.6455, the “neg|score” value (UTP20 knockout) was 0.0007152 and the “neg|score” value (VMA21 knockout) was 0.000773. The “neg|lfc” value (VPS18 knockout) was −1.3116, the “neg|lfc” value (VPS53 knockout) was −0.6999 and the “neg|lfc” value (VPS72 knockout) was −0.5497. The “neg|score” value (WDHD1 knockout) was 0.0009781, the “neg|score” value (WDR3 knockout) was 0.0009589 and the “neg|score” value (WDR18 knockout) was 0.0007708. The “neg|lfc” value (WNK1 knockout) was −1.0645, the “neg|score” value (WRAP53 knockout) was 0.0007984 and the “neg|score” value (XPR1 knockout) was 0.000881. For the same molecule, the “neg|lfc” value (XRCC5 knockout) was −1.6679, the “neg|score” value (ZBTB11 knockout) was 0.0007214 and the “neg|lfc” value (ZCCHC9 knockout) was −1.957. For the same molecule, the “neg|score” value (ZNF131 knockout) was 0.0008989, the “neg|lfc” value (ZNRD1 knockout) was −1.5763 and the “pos|lfc” value (gene ACTB) was −1.1591. For the same molecule, the “pos|lfc” value (gene ALG3) was −0.5782, the “pos|lfc” value (gene ANAPC15) was −1.2923 and the “pos|lfc” value (gene AP2S1) was −1.3206. The “pos|lfc” value (gene ARID4B) was −0.9143, the “pos|lfc” value (gene BRCA1) was −0.6966 and the “pos|lfc” value (gene BUB1B) was −0.8094. For the same molecule, the “pos|lfc” value (gene C1D) was −1.3624, the “pos|lfc” value (gene C16orf72) was −2.2251 and the “pos|lfc” value (gene CABIN1) was −0.7818. The “pos|lfc” value (gene COPS6) was −1.1267, the “pos|lfc” value (gene CS) was −1.0352 and the “pos|lfc” value (gene DARS2) was −1.095. The “pos|lfc” value (gene DCLRE1B) was −0.6801, the “pos|lfc” value (gene DDX49) was −2.1703 and the “pos|lfc” value (gene DYNC1H1) was −1.3605. For the same molecule, the “pos|lfc” value (gene DYNLRB1) was −1.1311, the “pos|lfc” value (gene EIF2S1) was −1.3093 and the “pos|lfc” value (gene EIF2S2) was −1.5347. For the same molecule, the “pos|lfc” value (gene EIF5AL1) was −0.8423, the “pos|lfc” value (gene EIF5B) was −1.1819 and the “pos|lfc” value (gene FANCA) was −0.6873. The “pos|lfc” value (gene FANCG) was −0.7949, the “pos|lfc” value (gene FNTB) was −0.9877 and the “pos|lfc” value (gene GCN1L1) was −0.5542. The “pos|lfc” value (gene GRWD1) was −0.9019, the “pos|lfc” value (gene GTPBP8) was −1.0746 and the “pos|lfc” value (gene HNRNPL) was −1.1529. The “pos|lfc” value (gene HNRNPR) was −0.5338, the “pos|lfc” value (gene KIAA1429) was −1.1326 and the “pos|lfc” value (gene LIMS1) was −0.8407. The “pos|lfc” value (gene MMGT1) was −0.748, the “pos|lfc” value (gene MRPL54) was −0.8393 and the “pos|lfc” value (gene NDUFB2) was −0.8331. The “pos|lfc” value (gene NDUFC1) was −0.9001, the “pos|lfc” value (gene NOP16) was −1.0035 and the “pos|lfc” value (gene PDCD7) was −0.9939. For the same molecule, the “pos|lfc” value (gene PDE12) was −0.8248, the “pos|lfc” value (gene PEAR1) was −0.6471 and the “pos|lfc” value (gene POLD3) was −1.3598. For the same molecule, the “pos|lfc” value (gene POLR1C) was −0.9691, the “pos|lfc” value (gene POLR2F) was −1.9506 and the “pos|lfc” value (gene PPHLN1) was −0.829. For the same molecule, the “pos|lfc” value (gene PPOX) was −0.7508, the “pos|lfc” value (gene PWP2) was −1.0599 and the “pos|lfc” value (gene RIMBP2) was −0.4894. For the same molecule, the “pos|lfc” value (gene RMND1) was −0.9991, the “pos|lfc” value (gene RPL3) was −1.3237 and the “pos|lfc” value (gene RPS19) was −2.0213. For the same molecule, the “pos|lfc” value (gene SEZ6) was −0.6228, the “pos|lfc” value (gene SLC2A1) was −0.9368 and the “pos|lfc” value (gene SMC3) was −1.7209. For the same molecule, the “pos|lfc” value (gene SMC6) was −1.1456, the “pos|lfc” value (gene SMG5) was −1.2307 and the “pos|lfc” value (gene SNRNP40) was −1.1024. The “pos|lfc” value (gene TEX10) was −1.3169, the “pos|lfc” value (gene TIFAB) was −0.6891 and the “pos|lfc” value (gene TOMM22) was −0.8272. The “pos|lfc” value (gene TRAPPC4) was −1.0187, the “pos|lfc” value (gene TTI2) was −0.8554 and the “pos|lfc” value (gene USP10) was −0.902. For the same molecule, the “pos|lfc” value (gene WDR12) was −1.1622, the “pos|lfc” value (gene WDR92) was −1.2556 and the “pos|lfc” value (gene ZNHIT6) was −1.4893.
